Source: patent US11292801B2, “Calpain modulators and therapeutic uses thereof” (Blade Therapeutics, Inc., priority 2016, dated 2022)

Key:
Human Calpain 9/NS1 = molecular target: T1, Human Calpain 9/NS1 (Homo sapiens, UniProt O14815); experiment: Biochemical inhibition of calpain 9, continuous fluorescence (FRET substrate) assay; details: mean, read-out: Human Calpain 9/NS1 IC50 (nM)_MEAN
T1 sequence (O14815 1-690): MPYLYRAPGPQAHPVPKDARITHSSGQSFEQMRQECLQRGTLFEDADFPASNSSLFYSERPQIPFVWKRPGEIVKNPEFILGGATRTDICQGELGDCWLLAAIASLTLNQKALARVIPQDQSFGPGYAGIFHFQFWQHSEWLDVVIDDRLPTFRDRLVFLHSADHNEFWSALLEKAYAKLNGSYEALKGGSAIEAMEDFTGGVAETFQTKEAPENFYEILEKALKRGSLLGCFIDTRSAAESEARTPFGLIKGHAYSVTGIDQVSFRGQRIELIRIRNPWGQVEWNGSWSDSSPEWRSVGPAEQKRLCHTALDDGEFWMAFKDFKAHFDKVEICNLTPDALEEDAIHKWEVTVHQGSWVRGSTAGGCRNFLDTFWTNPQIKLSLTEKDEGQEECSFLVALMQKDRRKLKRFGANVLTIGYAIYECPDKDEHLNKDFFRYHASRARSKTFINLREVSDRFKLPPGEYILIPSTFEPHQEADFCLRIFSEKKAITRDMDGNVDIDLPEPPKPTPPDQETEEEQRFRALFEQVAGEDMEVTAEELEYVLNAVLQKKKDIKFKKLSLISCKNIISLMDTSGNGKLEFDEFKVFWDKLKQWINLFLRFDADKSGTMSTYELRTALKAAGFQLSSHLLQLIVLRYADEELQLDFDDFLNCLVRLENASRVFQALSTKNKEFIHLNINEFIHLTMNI
T1 sequence (P04632 1-268 partner): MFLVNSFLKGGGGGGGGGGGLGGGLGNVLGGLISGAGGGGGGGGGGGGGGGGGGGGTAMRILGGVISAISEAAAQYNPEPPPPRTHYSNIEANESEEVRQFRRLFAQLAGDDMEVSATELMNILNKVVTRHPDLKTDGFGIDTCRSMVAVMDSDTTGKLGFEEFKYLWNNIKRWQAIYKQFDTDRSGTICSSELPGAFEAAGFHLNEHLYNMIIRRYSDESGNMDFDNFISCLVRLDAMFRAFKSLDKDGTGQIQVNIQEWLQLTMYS
Method in brief: (§1)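 IC50 values come from 4-parameter fits of progress-curve rates (1-5 min slopes) against log inhibitor concentration. Calpain and inhibitor premixed at ambient 25C in Tris pH ~7.5/NaCl/DTT buffer, then CaCl2 and FRET substrate added to activate; 5-FAM fluorescence (ex 490/em 520) followed 10 min.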

Human Calpain 1/NS1 = molecular target: T2, Human Calpain 1/NS1 (Homo sapiens, UniProt P07384); experiment: Biochemical inhibition of calpain 1, continuous fluorescence (FRET substrate) assay; details: mean, read-out: Human Calpain 1/NS1 IC50 (nM)_MEAN
T2 sequence (P07384 1-714): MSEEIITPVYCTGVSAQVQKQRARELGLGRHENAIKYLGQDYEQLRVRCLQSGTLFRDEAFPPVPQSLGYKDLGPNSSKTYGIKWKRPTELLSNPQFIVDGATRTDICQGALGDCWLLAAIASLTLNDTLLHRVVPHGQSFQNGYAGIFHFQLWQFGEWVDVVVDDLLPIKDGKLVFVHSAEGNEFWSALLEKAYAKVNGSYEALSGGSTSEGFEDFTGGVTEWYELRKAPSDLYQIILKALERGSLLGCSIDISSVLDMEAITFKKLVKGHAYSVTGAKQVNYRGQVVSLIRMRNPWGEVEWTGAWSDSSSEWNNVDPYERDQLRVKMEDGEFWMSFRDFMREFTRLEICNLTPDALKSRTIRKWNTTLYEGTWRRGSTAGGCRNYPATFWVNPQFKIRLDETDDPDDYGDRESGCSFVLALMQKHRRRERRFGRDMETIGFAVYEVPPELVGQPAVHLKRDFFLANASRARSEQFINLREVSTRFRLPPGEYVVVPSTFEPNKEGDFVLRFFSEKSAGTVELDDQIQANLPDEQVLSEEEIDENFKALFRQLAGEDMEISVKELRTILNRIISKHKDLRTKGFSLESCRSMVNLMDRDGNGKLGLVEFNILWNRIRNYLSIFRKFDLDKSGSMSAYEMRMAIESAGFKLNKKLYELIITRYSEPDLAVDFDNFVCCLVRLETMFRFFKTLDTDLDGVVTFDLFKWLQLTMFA
T2 sequence (P04632 1-268 partner): T1 sequence (P04632 1-268 partner)
Method in brief: as §1

Human Calpain 2/NS1 = molecular target: T3, Human Calpain 2/NS1 (Homo sapiens, UniProt P17655); experiment: Biochemical inhibition of calpain 2, continuous fluorescence (FRET substrate) assay; details: mean, read-out: Human Calpain 2/NS1 IC50 (nM)_MEAN
T3 sequence (P17655 1-700): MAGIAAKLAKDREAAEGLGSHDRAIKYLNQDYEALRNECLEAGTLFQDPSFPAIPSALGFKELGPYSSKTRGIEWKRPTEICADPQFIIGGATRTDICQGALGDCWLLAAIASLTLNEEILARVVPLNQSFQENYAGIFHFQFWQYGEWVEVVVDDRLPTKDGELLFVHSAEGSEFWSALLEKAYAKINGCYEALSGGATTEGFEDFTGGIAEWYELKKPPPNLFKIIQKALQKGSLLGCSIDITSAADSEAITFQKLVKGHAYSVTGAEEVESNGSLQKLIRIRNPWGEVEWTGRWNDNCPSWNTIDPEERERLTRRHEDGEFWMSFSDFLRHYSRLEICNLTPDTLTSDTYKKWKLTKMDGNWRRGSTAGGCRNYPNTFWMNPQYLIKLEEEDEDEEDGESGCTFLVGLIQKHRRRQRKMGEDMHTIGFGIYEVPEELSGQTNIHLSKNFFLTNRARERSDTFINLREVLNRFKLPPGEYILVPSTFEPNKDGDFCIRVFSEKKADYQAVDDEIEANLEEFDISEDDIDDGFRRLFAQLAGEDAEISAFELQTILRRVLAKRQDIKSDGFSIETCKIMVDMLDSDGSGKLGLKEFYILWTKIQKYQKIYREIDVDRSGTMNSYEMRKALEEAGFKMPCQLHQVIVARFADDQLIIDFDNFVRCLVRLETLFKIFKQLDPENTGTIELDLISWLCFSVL
T3 sequence (P04632 1-268 partner): T1 sequence (P04632 1-268 partner)
Method in brief: as §1

Row | Structure (SMILES) | IC50 (Human Calpain 9/NS1) [nM] | IC50 (Human Calpain 1/NS1) [nM] | IC50 (Human Calpain 2/NS1) [nM]
1 | Cc1cccc(C)c1NC(=O)C(=O)[C@@H]1CCCCOCCOCc2ccccc2C(=O)N1 [Compound 54, (S)—N-(2,6-dimethylphenyl)-2-oxo-2-(12-oxo-1,3,4,6,7,8,9,10,11,12-decahydrobenzo[f][1,4]dioxa[9]azacyclotetradecin-10-yl)acetamide] | > 10000 | > 10000 | > 10000
2 | CCOC(=O)CCNC(=O)C(=O)[C@@H]1CCCCOCCOCc2ccccc2C(=O)N1 [Compound 55, Ethyl (S)-3-(2-oxo-2-(12-oxo-1,3,4,6,7,8,9,10,11,12-decahydrobenzo[f][1,4]dioxa[9]azacyclotetradecin-10-yl)acetamido)propanoate] | 3000 to 10000 | > 10000 | 3000 to 10000
3 | CCOC(=O)CNC(=O)C(=O)[C@@H]1CCCCOCCOCc2ccccc2C(=O)N1 [Compound 56, Ethyl (S)-(2-oxo-2-(12-oxo-1,3,4,6,7,8,9,10,11,12-decahydrobenzo[f][1,4]dioxa[9]azacyclotetradecin-10-yl)acetyl)glycinate] | < 3000 | > 10000 | < 3000
4 | NC(=O)C(=O)[C@@H]1CCCCOCCOCc2ccccc2C(=O)N1 [Compound 57, (S)-2-Oxo-2-(12-oxo-1,3,4,6,7,8,9,10,11,12-decahydrobenzo[f][1,4]dioxa[9]azacyclotetradecin-10-yl)acetamide] | < 3000 | 3000 to 10000 | < 3000
5 | CC(C)NC(=O)C(=O)[C@@H]1C/C=C\COCCOCc2ccccc2C(=O)N1 [Compound 58, (S,Z)—N-isopropyl-2-oxo-2-(12-oxo-1,3,4,6,9,10,11,12-octahydrobenzo[f][1,4]dioxa[9]azacyclotetradecin-10-yl)acetamide] | > 10000 | > 10000 | > 10000
6 | CCCCNC(=O)C(=O)[C@@H]1C/C=C\COCCOCc2ccccc2C(=O)N1 [Compound 59, (S,Z)—N-butyl-2-oxo-2-(12-oxo-1,3,4,6,9,10,11,12-octahydrobenzo[f][1,4]dioxa[9]azacyclotetradecin-10-yl)acetamide] | < 3000 | > 10000 | > 10000

Now from value to molecule:

Row | IC50 (Human Calpain 9/NS1) [nM] | IC50 (Human Calpain 1/NS1) [nM] | IC50 (Human Calpain 2/NS1) [nM] | Structure (SMILES)
7 | > 10000 | > 10000 | > 10000 | CCOC(=O)CCNC(=O)C(=O)[C@@H]1C/C=C\COCCOCc2ccccc2C(=O)N1 [Compound 60, Ethyl (S,Z)-3-(2-oxo-2-(12-oxo-1,3,4,6,9,10,11,12-octahydrobenzo[f][1,4]dioxa[9]azacyclotetradecin-10-yl)acetamido)propanoate]
8 | > 10000 | > 10000 | > 10000 | Cc1cccc(C)c1NC(=O)C(=O)[C@@H]1C/C=C\COCCOCc2ccccc2C(=O)N1 [Compound 61, (S,Z)—N-(2,6-dimethylphenyl)-2-oxo-2-(12-oxo-1,3,4,6,9,10,11,12-octahydrobenzo[f][1,4]dioxa[9]azacyclotetradecin-10-yl)acetamide]
9 | > 10000 | > 10000 | > 10000 | CC(C)NC(=O)C(=O)[C@@H]1C/C=C/COCCOCc2ccccc2C(=O)N1 [Compound 62, (S,E)-N-isopropyl-2-oxo-2-(12-oxo-1,3,4,6,9,10,11,12-octahydrobenzo[f][1,4]dioxa[9]azacyclotetradecin-10-yl)acetamide]
10 | > 10000 | > 10000 | > 10000 | CCOC(=O)CCNC(=O)C(=O)[C@@H]1C/C=C/COCCOCc2ccccc2C(=O)N1 [Compound 63, Ethyl (S,E)-3-(2-oxo-2-(12-oxo-1,3,4,6,9,10,11,12-octahydrobenzo[f][1,4]dioxa[9]azacyclotetradecin-10-yl)acetamido)propanoate]
11 | < 3000 | > 10000 | > 10000 | CCCCNC(=O)C(=O)[C@@H]1C/C=C/COCCOCc2ccccc2C(=O)N1 [Compound 64, (S,E)-N-butyl-2-oxo-2-(12-oxo-1,3,4,6,9,10,11,12-octahydrobenzo[f][1,4]dioxa[9]azacyclotetradecin-10-yl)acetamide]
